{
  "source": "patent US11780821B2",
  "about": "“Inhibitors of fibroblast activation protein” (Praxis Biotech LLC, priority 2017, dated 2023)",
  "experiment": "PK study in hamsters (IV and PO)",
  "format": "in vivo",
  "conditions": "male, Golden Syrian, plasma, hamster",
  "protocol": "To assess the effect of FAP inhibition by an exemplary compound over the cleavage of endogenously produced FGF21, in vivo PK/PD studies were conducted in male Golden Syrian hamsters following single intravenous and oral administration of an exemplary compound. Compound 13 (an exemplary compound) was formulated in dimethyl sulfoxide (DMSO)/Solutol® HS 15 (BASF, Germany)/phosphate buffered saline (PBS, Sigma, USA) (5/5/90, v/v/v) at 0.2 mg/mL for IV injection and polyethylene glycol (PEG) 200 (Sigma, USA)/water for injection (WFI; Tai-Yu, Taiwan) (50/50, v/v) at 1 mg/mL for PO administration. The dosing volumes were 5 mL/kg for IV and 10 mL/kg for PO. Hamsters from Group 1 received an intravenous bolus via jugular vein of 1 mg/kg of compound 13 (an exemplary compound). On the other hand, hamsters from Group 2 received an intragastric bolus of 10 mg/kg of compound 13 (an exemplary compound) using feeding needles. Plasma samples were collected at 5, 10, 15, 30, 60, 120, 240, 360, 480 and 1440 minutes post-dose in both IV and PO groups. Hamsters from group 3 were not dosed and were used to collect samples of zero time point and baseline levels of FAP activity and endogenous FGF21. […]",
  "data": [
    {"smiles": "N#C[C@@H]1CC(F)(F)CN1C(=O)CNC(=O)c1ccncc1-c1ccccc1", "note": "[Compound 13, (S)—N-(2-(2-cyano-4,4-difluoropyrrolidin-1-yl)-2-oxoethyl)-3-phenylisonicotinamide]", "values": [
      {"measurement": "AUC(0-t)", "setting": "intravenous 1 mg/kg", "result": 255, "unit": "ng·h/mL"},
      {"measurement": "AUC(0-t)", "setting": "oral 10 mg/kg", "result": 350, "unit": "ng·h/mL"}
    ]}
  ]
}
